Data set [1] has as its system Wistar rats. The experiment in a line: ABR threshold shifts, noise induced hearing loss (NIHL). It counts as in vivo, rat. As for the experimental part:
Male Wistar rats (150-250 gm) were used for this study under an animal care protocol approved by the Laboratory and Animal Care and Use Committee (SIU School of Medicine). Pre-treatment ABRs were performed. Animals were then treated according to the experimental paradigm. Prevention strategy: consisted of administration of ETA either intra-tympanic ally (IT) (250 μg/50 μl) or subcutaneously (sc) (3 mg/kg) or PBS (IT-50 μl or sc-1 ml) either 3 days or 7 days prior to noise exposure (NE).
Animals were exposed to noise (NE), and then provided ETA treatments either IT or SC at either 2 h or 24 h post noise injury. Post treatment ABR thresholds were determined at 21 days post noise exposure and cochleae were excised for morphological, molecular and biochemical studies. Cochleae used for RNA preparations were flushed immediately with RNA later and kept in RNA later for 24 h at 4° C. Those used for immunohistochemical studies were perfused and fixed with 4% paraformaldehyde, while those used for Scanning electron microscopy (SEM) were perfused and fixed with 2.5% glutaraldehyde. Cochleae used for whole mounts were decalcified for 7-10 days in 100 mM EDTA at room temperature.
Male Wistar rats were exposed to octave band noise at 122 dB centered at 16 kHz for 1 h under isofluorane anesthesia, with the 3 inch silicon tubes attached to the high frequency transducer resting in the middle ear cavity. This exposure typically results in a 30-50 dB temporary threshold shift (measured as an immediate pre-to-post noise exposure shift in ABR thresholds) across all frequencies; with slightly more elevation at those frequencies around 16 kHz and 20-40 dB permanent threshold shift measured at 21 days post noise exposure at all frequencies. Acoustic stimuli are calibrated using a cloth model rat and a Bruel & Kjaer Pulse System with a ½ inch free-field microphone (B&K model 4191). Baseline noise levels in the test chamber (with background test noise turned off) are typically measured below 20 dB SPL in the 4-40 kHz range.
Pre-treatment ABR thresholds were determined using the high frequency Intelligent Hearing Systems (IHS) on naive rats prior to any treatment or noise exposure for each ear. Animals were tested with a stimulus intensity series that was initiated at 0 dB sound pressure level (SPL) and reached a maximum at 90 dB SPL. The stimulus intensity levels were increased in 10 dB increments, and the evoked ABR waveforms were observed on a video monitor. The auditory stimuli included tone bursts at 8, 16, and 32 kHz with a 10 msec plateau and a 1 msec rise/fall time presented at a rate of 5/sec. Threshold was defined as the lowest intensity capable of evoking a reproducible, visually detectable response with two distinct waveforms and minimum amplitude of 0.5 μV.
Preconditioning of the TRPV1 receptor in the rat cochlea by oral administration of capsaicin is shown here to protect from NIHL. Male Wistar rats weighing 200-250 gms were used. ABRs from naïve rats were recorded. Rats were then treated with oral phosphate buffered saline (PBS—1 ml) or capsaicin (1 ml of 20 mg/ml) starting 24 hrs prior to NE, on the day of NE, and 24 hrs post NE. The final ABRs were recorded 21 days post NE. Cochleae were collected for various biochemical tests and immunohistochemistry. At least 6 animals were used per treatment group. NE caused an ABR threshold shift of 21.6±1.7, 35.5±1.9 and 43.9±2.3 dB threshold shift at 8, 16 and 32 kHz respectively. Oral capsaicin treatment completely protects from NIHL (3.9±1.4, 6.1±1.8 and 8.9±2.1 dB threshold shift at 8, 16 and 32 kHz respectively), there is no significant change in ABR threshold shift compared to control. […] Statistical significance was calculated using one way ANOVA with Tukey's post-hoc analyses, p<0.05 (FIG. 16.A.).
ABR measurements were conducted in naïve male Wistar rats. […]

The test system of data set [2] is CB2 receptor. Put plainly: Immunoblotting for CB1 and CB2 receptors. It counts as cell-based, mouse. Conditions: capsaicin 2.5 μM 24 h. As for the experimental part:
FIG. 10.A. UBOC-1 cells were treated with capsaicin (2.5 μM) for 24 h. Total protein was extracted and immunoblotting was performed for CB1 and CB2 receptors. B-actin was used for housekeeping and loading control. Capsaicin increased CB2 receptor staining. FIG. 10.B. Cochleae were harvested from rats treated with either oral PBS or oral capsaicin (20 mg/kg) for 24 h. Total RNA was harvested, converted to c-DNA and probed for CB2 receptor expression by q-PCR. GAPDH was used as housekeeping gene. […] FIG. 10.C. and FIG. 10.D. Cochleae were harvested from rats treated with PBS, fixed in 4% paraformaldehyde in PBS for 8 h. They were then decalcified in EDTA (10 mM), and mid modiolar sections of the cochleae were probed for the cannabinoid receptors subtypes, CB1 (FIG. 10.C.) and CB2 (FIG. 10.D.), while nuclei were stained with DAPI. Fluorescent images were obtained with a Leica confocal microscope. […] Magnification for OHC, spiral ganglion cells and stria vascularis (40×). Similar images were obtained from 3 different animals.
Total cell lysates were prepared using ice-cold lysis buffer containing 50 mM Tris HCl, 10 mM MgCl2 and 1 mM EDTA in the presence of protease inhibitors mixture and phosphatase inhibitor 1 (1:100) (Sigma, St. Louis, MO). The lysates were kept on ice for 5 min followed by centrifugation. The clear supernatant was transferred to a clean tube and discarded the pellet. […]
In general terms: Immunoblotting shows a protein as a band on a membrane.

[3] abbreviates: oral capsaicin 24 hrs prior, day of and 24 hrs post NE, 21 days post NE.

With `COc1cc(CNC(=O)CCCC/C=C/C(C)C)ccc1O` [capsaicin, 8-methyl-N-vanillyl-trans-6-nonenamide], the “Wave 1 amplitude versus sound intensity” value in data set [1] (capsaicin 5 mg/kg oral, ETA 1 mg/kg, noise exposure (FIG. 18.B)) was “partial restoration”. In data set [1] (intra-tympanic or oral capsaicin, 21 days after NE), the NE threshold shift entry is on record as “abrogated”. Besides, in data set [1] (setting [3]), the “ABR threshold shift at 8 kHz” value is 3.9±1.4 dB, the “ABR threshold shift at 16 kHz” value is 6.1±1.8 dB and the “ABR threshold shift at 32 kHz” value is reported as 8.9±2.1 dB. Further, in data set [1] (oral capsaicin alone, no NE), the “ABR threshold shift at 8 kHz” value worked out at 1±1.1 dB, the “ABR threshold shift at 16 kHz” value is listed as 1±1.1 dB and the “ABR threshold shift at 32 kHz” value is 3±1.6 dB. Moreover, the CB2 expression entry in data set [2] is “increased CB2 expression”.
